Test results as given in patent US9353104B2, “Substituted pyridizinone derivatives as PDE10 inhibitors” (priority 2013, dated 2016).

Molecular target: human PDE10A2 (Homo sapiens (Human), UniProt Q9Y233)
Test: PDE10 fluorescence polarization (IMAP FP) inhibition assay
Assay type: biochemical
Conditions: human PDE10A2 lysate, FAM-labeled cAMP 50 nM, room temperature; read-out: PDE10A Ki
Method in brief: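 Cytoplasmic lysate of AD293 cells transiently expressing human PDE10A2, diluted for ~20% conversion of 50 nM FAM-cAMP, in 10 mM Tris pH 7.2, 10 mM MgCl2, 1 mM DTT, 0.01% Tween-20. Reaction 30 min at room temperature, read by IMAP fluorescence polarization; 10-point 3-fold titrations, 1% DMSO as 0%, reference PDE10 inhibitor at 5,000× Ki as 100%.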

Sequence of human PDE10A2 (Q9Y233 267-1055): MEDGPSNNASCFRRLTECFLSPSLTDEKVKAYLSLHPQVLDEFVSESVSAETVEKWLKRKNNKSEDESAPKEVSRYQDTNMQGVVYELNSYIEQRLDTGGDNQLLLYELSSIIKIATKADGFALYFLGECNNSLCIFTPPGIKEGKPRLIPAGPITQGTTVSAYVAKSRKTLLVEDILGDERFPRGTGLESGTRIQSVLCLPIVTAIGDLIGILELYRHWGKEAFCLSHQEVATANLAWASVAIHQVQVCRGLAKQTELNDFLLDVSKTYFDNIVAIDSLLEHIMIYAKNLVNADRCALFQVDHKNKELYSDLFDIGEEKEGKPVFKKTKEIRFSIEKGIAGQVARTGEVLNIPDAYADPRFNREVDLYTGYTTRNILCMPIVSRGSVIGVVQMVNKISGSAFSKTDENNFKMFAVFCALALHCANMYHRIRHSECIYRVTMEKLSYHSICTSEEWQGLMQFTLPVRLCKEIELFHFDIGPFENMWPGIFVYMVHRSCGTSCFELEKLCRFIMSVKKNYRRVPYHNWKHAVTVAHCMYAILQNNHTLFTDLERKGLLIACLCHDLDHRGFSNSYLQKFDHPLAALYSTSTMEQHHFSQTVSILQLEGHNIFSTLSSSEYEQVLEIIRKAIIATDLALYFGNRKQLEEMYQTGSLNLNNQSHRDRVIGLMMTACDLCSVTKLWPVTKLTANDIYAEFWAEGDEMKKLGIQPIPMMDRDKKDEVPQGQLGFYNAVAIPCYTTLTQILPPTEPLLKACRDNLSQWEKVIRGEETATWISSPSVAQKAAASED

## Cc1cnc(CNc2cc(OC[C@H]3C[C@@H]3c3nn(C)c4ccccc34)nn(C)c2=O)s1 [Example 112, 2-methyl-6-(((1S,2S)-2-(1-methyl-1H-indazol-3-yl)cyclopropyl)methoxy)-4-((5-methylthiazol-2-yl)methylamino)pyridazin-3(2H)-one]
  Ki: 1.4 nM

## Cn1cc(CNc2cc(OC[C@@H]3C[C@H]3c3nn(C)c4ccccc34)nn(C)c2=O)cn1 [Example 113, 2-methyl-6-(((1R,2R)-2-(1-methyl-1H-indazol-3-yl)cyclopropyl)methoxy)-4-((1-methyl-1H-pyrazol-4-yl)methylamino) pyridazin-3(2H)-one]
  Ki: 0.197 nM

## Cc1cnc(CNc2cc(OC[C@@H]3C[C@H]3c3nn(C)c4ccccc34)nn(C)c2=O)s1 [Example 114, 2-methyl-6-(((1R,2R)-2-(1-methyl-1H-indazol-3-yl)cyclopropyl)methoxy)-4-((5-methylthiazol-2-yl)methylamino)pyridazin-3(2H)-one]
  Ki: 0.118 nM

## Cc1cccc([C@H]2C[C@@H]2COc2cc(NCc3nnc(C)s3)c(=O)n(C)n2)n1 [Example 115, 2-methyl-4-((5-methyl-1,3,4-thiadiazol-2-yl)methylamino)-6-(((1S,2S)-2-(6-methylpyridin-2-yl)cyclopropyl)methoxy) pyridazin-3(2H)-one]
  Ki: 0.033 nM

## Cc1cccc([C@H]2C[C@@H]2COc2cc(NCc3cc(C)nn3C)c(=O)n(C)n2)n1 [Example 116, 4-((1,3-dimethyl-1H-pyrazol-5-yl)methylamino)-2-methyl-6-(((1S,2S)-2-(6-methylpyridin-2-yl)cyclopropyl)methoxy) pyridazin-3(2H)-one]
  Ki: 0.005 nM

## Cc1cccc([C@H]2C[C@@H]2COc2cc(NCc3cnn(C)c3)c(=O)n(C)n2)n1 [Example 117, 2-methyl-4-((1-methyl-1H-pyrazol-4-yl)methyl-amino)-6-(((1S,2S)-2-(6-methylpyridin-2-yl)cyclopropyl)methoxy) pyridazin-3(2H)-one]
  Ki: 0.089 nM

## Cc1cccc([C@H]2C[C@@H]2COc2cc(NCc3ncc(C)s3)c(=O)n(C)n2)n1 [Example 118, 2-methyl-6-(((1S,2S)-2-(6-methylpyridin-2-yl)cyclo-propyl)methoxy)-4-((5-methylthiazol-2-yl)methyl-amino)pyridazin-3(2H)one]
  Ki: 0.037 nM

## Cc1cccc([C@H]2C[C@@H]2COc2cc(NCc3ccccn3)c(=O)n(C)n2)n1 [Example 119, 2-methyl-6-(((1S,2S)-2-(6-methylpyridin-2-yl)cyclo-propyl)methoxy)-4-(pyridin-2-ylmethylamino-)pyridazin-3(2H)-one]
  Ki: 3.4 nM

## Cc1cccc([C@H]2C[C@@H]2COc2cc(NCc3cccnc3)c(=O)n(C)n2)n1 [Example 120, 2-methyl-6-(((1S,2S)-2-(6-methylpyridin-2-yl)cyclo-propyl)methoxy)-4-(pyridin-3-ylmethylamino-)pyridazin-3(2H)-one]
  Ki: 1.3 nM

## Cc1cc(CNc2cc(OC[C@H]3C[C@@H]3c3ccc4c(n3)CCC4)nn(C)c2=O)n(C)n1 [Example 121, 6-(((1S,2S)-2-(6,7-dihydro-5H-cyclopenta-[b]pyridin-2-yl)cyclop-ropyl)methoxy)-4-((1,3-dimethyl-1H-pyrazol-5-yl)methylamino)-2-methylpyridazin-3(2H)one]
  Ki: 0.001 nM

## Cc1cnc(CNc2cc(OC[C@H]3C[C@@H]3c3ccc4c(n3)CCC4)nn(C)c2=O)s1 [Example 124, 6-(((1S,2S)-2-(6,7-dihydro-5H-cyclopenta-[b]pyridin-2-yl)cyclopropyl)methoxy)-2-methy-4-((5-methylthiazol-2-yl)-methylamino-)pyridazin-3(2H)-one]
  Ki: 0.002 nM

## Cn1cc(CNc2cc(OC[C@H]3C[C@@H]3c3ccc4c(n3)CCC4)nn(C)c2=O)cn1 [Example 125, 6-(((1S,2S)-2-(6,7-dihydro-5H-cyclopenta[b]pyridin-2-1)cyclopropyl)methoxy)-2-methyl-4-((1-methyl-1H-pyrazol-4-yl)methylamino-)pyridazin-3(2H)-one]
  Ki: 0.005 nM

## COc1ccc([C@H]2C[C@@H]2COc2cc(NCc3nc(C)c(C)s3)c(=O)n(C)n2)nc1 [Example 126, 4-((4,5-dimethylthiazol-2-yl)methylamino)-6-(((1S,2S)-2-(5-methoxy-pyridin-2-yl)cyclopropyl-)methoxy)-2-methyl-pyridazin-3(2H)-one]
  Ki: 0.048 nM

## Cc1ccc([C@H]2C[C@@H]2COc2cc(NCc3nc(C)c(C)s3)c(=O)n(C)n2)nc1 [Example 127, 4-((4,5-dimethylthiazol-2-yl)methylamino)-2-methyl-6-(((1S,2S)-2-(5-methyl-pyridin-2-yl)cyclopropyl- )methoxy)pyridazin-3(2H)-one]
  Ki: 0.045 nM

## Cc1nc(CNc2cc(OC[C@H]3C[C@@H]3c3ccn(C)n3)nn(C)c2=O)sc1C [Example 128, 4-((4,5-dimethylthiazol-2-yl)methylamino)-2-methyl-6-(((1S,2S)-2-(1-methyl-1H-pyrazol-3-yl)cyclo-propyl)methoxy)pyridazin-3(2H)-one]
  Ki: 0.368 nM

## Cc1cc(CNc2cc(OC[C@H]3C[C@@H]3c3ccn(C)n3)nn(C)c2=O)nn1C [Example 129, 4-((1,5-dimethyl-1H-pyrazol-3-yl)methylamino)-2-methyl-6-(((1S,2S)-2-(1-methyl-1H-pyrazol-3-yl)cyclopropyl)methoxy) pyridazin-3(2H)-one]
  Ki: 3.6 nM

## COc1ccc([C@H]2C[C@@H]2COc2cc(NCc3ncc(C)s3)c(=O)n(C)n2)nc1 [Example 130, 6-(((1S,2S)-2-(5-methoxy-pyridin-2-yl)cyclopropyl-)methoxy)-2-methyl-4-((5-methyl-thiazol-2-yl)-methylamino-)pyridazin-3(2H)-one]
  Ki: 0.004 nM

## COc1ccc([C@H]2C[C@@H]2COc2cc(NCc3cnn(C)c3)c(=O)n(C)n2)nc1 [Example 131, 6-(((1S,2S)-2-(5-methoxy-pyridin-2-yl)cyclopropyl-)methoxy)-2-methyl-4-((1-methyl-1H-pyrazol-4-yl)methylamino)pyridazin-3(2H)-one]
  Ki: 0.014 nM

## COc1ccc([C@H]2C[C@@H]2COc2cc(NCc3cc(C)nn3C)c(=O)n(C)n2)nc1 [Example 132, 4-((1,3-dimethyl-1H-pyrazol-5-yl)methyl-amino)-6-(((1S,2S)-2-(5-methoxypyridin-2-yl)-cyclopropyl)methoxy)-2-methylpyridazin-3(2H)one]
  Ki: 0.002 nM

## COc1ccc(CNc2cc(OC[C@H]3C[C@@H]3c3ccc(OC)cn3)nn(C)c2=O)cc1 [Example 133, 4-(4-methoxybenzyl-amino)-6-(((1S,2S)-2-(5-methoxypyridin-2-yl)-cyclopropyl)methoxy)-2-methylpyridazin-3(2H)one]
  Ki: 0.021 nM

## COc1ccc([C@H]2C[C@@H]2COc2cc(NCc3ccccn3)c(=O)n(C)n2)nc1 [Example 134, 6-(((1S,2S)-2-(5-methoxy-pyridin-2-yl)-cyclopropyl-)methoxy)-2-methyl-4-(pyridin-2-yl-methyl-amino)pyridazin-3(2H)one]
  Ki: 0.706 nM

## COc1ccc([C@H]2C[C@@H]2COc2cc(NCc3cccnc3)c(=O)n(C)n2)nc1 [Example 135, 6-(((1S,2S)-2-(5-methoxy-pyridin-2-yl)cyclopropyl-)methoxy)-2-methyl-4-(pyridin-3-ylmethylamino-)pyridazin-3(2H)-one]
  Ki: 0.261 nM
